{
  "source": "patent US8241607B2",
  "about": "“Use of fructose-based compounds for the diagnosis of cancer” (priority 2005, dated 2012)",
  "key": {"PANC-1 cells": {"test_system": "PANC-1 cells", "assay": "PANC-1 proliferation in fructose versus glucose (MTS assay)", "format": "cell-based", "description": "FIG. 13 depicts higher proliferation rates in pancreatic cancer cells in fructose (5.5 mM) than glucose (5.5 mM) containing medium in accordance with an embodiment of the present invention. PANC-1 cells were pre-incubated in 2 mM glucose, after which they were plated in 5.5 mM fructose or glucose for times between 12-72 h, after which proliferative rates were measured using an MTS assay. Proliferative rates are expressed as the percentage difference between cells grown in 5.5 mM fructose versus 5.5 mM glucose. p<0.01 for times >48 h.\nFIG. 14 depicts proliferation rates of pancreatic cells in different fructose or glucose concentrations in accordance with an embodiment of the present invention. PANC-1 cells were plated in a range of fructose or glucose concentrations (5-25 mM) for 72 h, after which proliferative rates were measured using an MTS assay. *, p<0.05 for concentrations between 5-25 mM fructose versus glucose.\nFIG. 17 depicts cell proliferation regardless of co-existent glucose concentration in accordance with an embodiment of the present invention. PANC-1 cells were pre-incubated in 2 mM glucose prior to treatment with a range of concentrations (0-15 mM) mixed with a range of fructose concentrations (0-15 mM) for 72 h. PANC-1 cell proliferative rates were then measured using the MTS assay (absorbance in arbitrary units).\nStandard media for maintenance cancer cell line culture, including pancreatic cancer cells such as PANC-1 cells contain either low- (5-7 mM), or high- (12-25 mM) glucose concentrations. […] Proliferative rates were then measured in replicate (minimum of 6) aliquot wells of the pancreatic cancer cells, and the change (expressed as percent increase) in proliferative rates compared between cells grown in glucose, or fructose containing medium.\nThis first result intrigued the inventors, but given there is little documentation regarding physiological fructose concentrations, the inventors first considered that the “apparent” pro-proliferative effects of fructose were simply a consequence of the highly stylized in vitro experimental conditions, and that if the pancreatic cancer cells were cultured in higher glucose concentrations, this would result in similar proliferative rates to those the inventors observed following culture in 5.5 mM fructose. […] MTS assay was employed to measure pancreatic cancer cell proliferative rates, which utilizes mitochondrial oxidation to quantify cell proliferation. As the inventors were examining carbohydrate-mediated effects, the inventors considered the change observed in proliferative rates, as measured by this assay, simply reflected changes in mitochondrial oxidation. […]"}, "[1]": {"test_system": "primary pancreatic cancers", "assay": "BRDU uptake in primary cultures of surgically resected pancreatic cancers", "format": "cell-based, human", "settings": "all 5 primary pancreatic cancers; 5.5 mM fructose compared to 5.5 mM glucose, 72 h", "description": "FIG. 18 depicts BRDU incorporation by pancreatic cells in accordance with an embodiment of the present invention. Freshly resected pancreatic cancers were mechanically and enzymatically dispersed, and cells were pre-incubated in 2 mM glucose prior to treatment with 5.5 mM glucose or fructose for 72 h. BRDU (10 μM) was added to the medium at 48 h, and BRDU-uptake quantified at 72 h.\nAs immortalized cell-lines, such as PANC-1 pancreatic cancer cells, can become dedifferentiated after repeated passages, and in order to translate these findings in the PANC-1 cells to patients with pancreatic cancer, the inventors also examined proliferative rates in primary cultures of fresh surgically resected pancreatic cancers, following incubation in 2 mM, and 5.5 mM glucose or 5.5 mM fructose. Briefly, after mechanical and enzymatic (trypsin and DNAse) disaggregation, aliquots of tumor cells were seeded in 6-well plates, and incubated in standard DMEM media with 10% fetal bovine serum, and 2 mM glucose, 5.5 mM glucose, or 5.5 mM fructose for 72 h. As before in the PANC-1 experiments, BRDU (10 μM) was added in the […] of incubation in the sugars, following which BRDU-uptake was quantified."}, "AP-1 [2]": {"test_system": "AP-1", "assay": "AP-1 probe binding assay on nuclear extracts of PANC-1 cells", "format": "cell-based", "settings": "5.5 mM fructose, 48 h", "description": "(§1) FIG. 24 depicts luciferase activity of PANC-1 cells and primary culture of surgically resected pancreatic tumor cells in accordance with an embodiment of the present invention. PANC-1 pancreatic cancer cells and a primary culture of a surgically resected pancreatic tumor were incubated in 2 mM glucose, 5.5 mM glucose or 5.5 mM fructose for 48 h, after which nuclear extracts were incubated with a biotinylated AP-1 probe, and detected by an antibody-linked colorimetric method. *, p<0.01\n(§2) In separate experiments PANC-1 cells, and primary cultures of surgically resected pancreatic tumors were incubated in 2 mM glucose, or 5.5 mM glucose or 5.5 mM fructose for 48 h, after which nuclear extracts were incubated with a biotinylated AP-1 probe in binding buffer. AP-1/AP1 probe complexes were next conjugated to a streptavidin-coated assay plate and detected using an AP-1 specific antibody, followed by binding of a horseradish-peroxidase conjugated secondary antibody, and detection by a colorimetric reagent."}, "AP-1 [3]": {"test_system": "AP-1", "assay": "AP-1 probe binding assay on nuclear extracts of a primary culture of a pancreatic tumor", "format": "cell-based, human", "settings": "5.5 mM sugar, 48 h", "description": "as §1, §2"}, "normal pancreas tissue": {"test_system": "normal pancreas tissue", "assay": "Substrate oxidation with 13C tracers in primary culture of normal pancreas", "format": "cell-based, human", "settings": "5.5 mM, 72 h", "description": "FIG. 31 depicts substrate oxidation in accordance with an embodiment of the present invention. Substrate oxidation in a primary culture of a normal pancreas (left), and a pancreatic cancer (right) following incubation in 2 mM, or 5 mM glucose, or 5 mM fructose for 72 h.\nIn separate studies, the inventors treated primary cultures of 4 pancreatic adenocarcinomas, and 3 normal pancreas tissues with the [1,2-^13C2]D-glucose-, or -fructose-tracers as before for 72 h, and carried out metabolic studies."}},
  "data": [
    {"smiles": "O=C(CO)[C@@H](O)[C@H](O)[C@H](O)CO", "note": "[fructose]", "values": [
      {"measurement": "proliferative rates", "setting": "PANC-1 cells; 5 mM fructose vs 5-fold higher glucose (25 mM), 72 h", "value": "higher proliferative rates"},
      {"measurement": "higher proliferative rate, fructose vs glucose", "setting": "PANC-1 cells; 5.5 mM fructose vs 5.5 mM glucose, 72 h (maximal)", "value": 23, "unit": "%"},
      {"measurement": "fructose concentration giving increase in cell proliferation regardless of co-existent glucose", "setting": "PANC-1 cells; 72 h, glucose 0-15 mM admixed with fructose 0-15 mM", "value": "≥ 6", "unit": "mM"},
      {"measurement": "fructose concentration at which increased proliferation was first demonstrable", "setting": "PANC-1 cells; 72 h, range 2-25 mM", "value": "around 5 mM"},
      {"measurement": "proliferative rates (BRDU-uptake)", "setting": "[1]", "value": "higher proliferative rates"},
      {"measurement": "AP-1 luciferase reporter activity higher than in 5.5 mM glucose", "setting": "AP-1 [2]", "value": "approximately 40%"},
      {"measurement": "increase in AP-1 activation compared to 2 mM glucose", "setting": "AP-1 [3]", "value": 2.1, "unit": "fold"},
      {"measurement": "substrate oxidation to CO2", "setting": "normal pancreas tissue", "value": "effectively oxidizes"}
    ]}
  ]
}
